In one data set the test system is MGC-803. The data set can be described thus: Antiproliferative activity against human MGC-803 cells assessed as inhibition of cell proliferation measured after 72 hrs by MTT assay. It is filed as functional, cell-based. The conditions noted are these: MGC-803, 72 h.
The next data set has as its system A549. The data set can be described thus: Antiproliferative activity against human A549 cells assessed as inhibition of cell proliferation measured after 72 hrs by MTT assay. It is filed as functional, cell-based. The conditions noted are these: A549, 72 h.
For the next data set, the system named is MCF7. The data set can be described thus: Antiproliferative activity against human MCF7 cells assessed as inhibition of cell proliferation measured after 72 hrs by MTT assay. The conditions noted are these: MCF7, 72 h. It is filed as functional, cell-based.
The next data set concerns HepG2. Kind of data set: Antiproliferative activity against human HepG2 cells assessed as inhibition of cell proliferation measured after 72 hrs by MTT assay. Type of data set: functional, cell-based. The conditions noted are these: HepG2, 72 h.
Data set [1] is described as follows: Cytotoxicity against human GES1 cells assessed as inhibition of cell proliferation measured after 72 hrs by MTT assay. It is filed as toxicity, cell-based.
A further data set concerns HGC-27. The data set can be described thus: Antiproliferative activity against human HGC-27 cells assessed as inhibition of cell proliferation measured after 72 hrs by MTT assay. Type of data set: functional, cell-based. The conditions noted are these: HGC-27, 72 h.

Each structure is given as a SMILES string.

In the case of `O=C(Nc1ccccn1)C1CCN(C/C=C/c2ccccc2)CC1`, the IC50 came out at 45.2 µM in the data set with MGC-803, 89.3 µM with A549, 67.2 µM in the data set on MCF7 and 51.1 µM in the data set on HepG2.

For the compound `COc1ccccc1NC(=O)C1CCN(C/C=C/c2ccccc2)CC1`, the IC50 with MGC-803 is 71.2 µM; in the data set on A549, greater than 100 µM; in the data set on MCF7, greater than 100 µM; in the data set on HepG2, 91.2 µM.

Consider `O=c1[nH]cc(F)c(=O)[nH]1` [FLUOROURACIL], for which the half-maximal inhibitory concentration (IC50) came out at 12.1 µM in the data set with MGC-803, 15.1 µM with A549, 9.49 µM in the data set on MCF7 and 6.69 µM with HepG2.

Turning to `O=C(Nc1cc(-c2cccc(Br)c2)on1)C1CCN(C/C=C/c2ccccc2)CC1`, the IC50 was determined as 4.61 µM in the data set on MGC-803, 6.53 µM with A549, 4.87 µM in the data set with MCF7 and 4.42 µM in the data set on HepG2.

As for `O=C(Nc1ccc(F)c(Br)c1)C1CCN(C/C=C/c2ccccc2)CC1`, the half-maximal inhibitory concentration (IC50) came out at 9.27 µM in the data set with MGC-803, 11.7 µM with A549, 13.5 µM with MCF7 and 8.19 µM in the data set with HepG2.

`O=C(Nc1nccs1)C1CCN(C/C=C/c2ccccc2)CC1`: the IC50 in the data set on MGC-803 worked out at 16.4 µM; in the data set with A549, 34.9 µM; in the data set on MCF7, 28.6 µM; in the data set with HepG2, 22.4 µM.

In the case of `CCCc1ccc(NC(=O)C2CCN(C/C=C/c3ccccc3)CC2)cc1`, the IC50 with MGC-803 came out at 5.21 µM; in the data set with A549, 9.47 µM; in the data set on MCF7, 9.03 µM; in the data set with HepG2 it was 9.41 µM.

In the case of `CCCCc1ccc(NC(=O)C2CCN(C/C=C/c3ccccc3)CC2)cc1`, the IC50 came to 2.57 µM in the data set on MGC-803, 5.91 µM in the data set on A549, 5.87 µM with MCF7 and 4.32 µM in the data set with HepG2.

`O=C(Nc1cccc(Br)c1)C1CCN(C/C=C/c2ccccc2)CC1`: the IC50 was found to be 9.11 µM in the data set on MGC-803, 16.4 µM with A549, 11.5 µM in the data set with MCF7 and 19.2 µM with HepG2.

Take `O=C(Nc1nc2ccc(Br)cc2s1)C1CCN(C/C=C/c2ccccc2)CC1`: the IC50 in the data set with MGC-803 amounted to 4.38 µM; in the data set with A549, 17.7 µM; in the data set with MCF7 it was 14.6 µM; with HepG2, 32.1 µM.

For the compound `O=C(Nc1ccccc1)C1CCN(C/C=C/c2ccccc2)CC1`, the IC50 stood at 57.9 µM with MGC-803, 69.7 µM in the data set on A549, 60.2 µM in the data set on MCF7 and 90.9 µM with HepG2.

Regarding `O=C(Nc1cccc(C(F)(F)F)c1)C1CCN(C/C=C/c2ccccc2)CC1`, the IC50 in the data set with MGC-803 amounted to 9.59 µM; in the data set on A549, 15.6 µM; in the data set with MCF7, 16.1 µM; with HepG2, 11.4 µM.

As to `O=C(Nc1cccc(F)c1)C1CCN(C/C=C/c2ccccc2)CC1`, the IC50 worked out at 23.3 µM with MGC-803, 43.3 µM with A549, 33 µM with MCF7 and 51.1 µM in the data set with HepG2.

With `CCc1ccc(NC(=O)C2CCN(C/C=C/c3ccccc3)CC2)cc1`, the IC50 with MGC-803 is 11.6 µM; in the data set with A549, 19.6 µM; in the data set with MCF7, 20 µM; in the data set with HepG2 it was 23.3 µM.

As to `O=C(NCc1ccccc1)C1CCN(C/C=C/c2ccccc2)CC1`, the half-maximal inhibitory concentration (IC50) in the data set with MGC-803, in the data set with A549, in the data set with MCF7 and in the data set with HepG2 was greater than 100 µM each time.

As for `NS(=O)(=O)OC[C@@H]1CC(n2ccc3c(N[C@H]4CCc5ccccc54)ncnc32)C[C@@H]1O` (single isomer, unassigned) [PEVONEDISTAT], the IC50 in the data set on MGC-803 was 5.16 µM; with A549, 47.8 µM; with MCF7 it was greater than 100 µM; with HepG2, 8.15 µM; with HGC-27, 1.25 µM. Moreover, the IC50 at 72 h in data set [1] is 13.5 µM.

On to `Cc1ccc(NC(=O)C2CCN(C/C=C/c3ccccc3)CC2)cc1`, for which the half-maximal inhibitory concentration (IC50) worked out at 24.1 µM in the data set on MGC-803, 29.6 µM in the data set with A549, 30 µM with MCF7 and 33.9 µM in the data set on HepG2.

As to `COc1cccc(NC(=O)C2CCN(C/C=C/c3ccccc3)CC2)c1`, the IC50 in the data set with MGC-803 came out at 37.2 µM; with A549, 50.5 µM; with MCF7 it was 42.6 µM; in the data set on HepG2 it was 78.6 µM.

Regarding `N#Cc1ccc(NC(=O)C2CCN(C/C=C/c3ccccc3)CC2)cc1`, the concentration for half-maximal inhibition (IC50) was determined as 28.2 µM in the data set on MGC-803, 40.2 µM in the data set on A549, 44.5 µM in the data set on MCF7 and 38.3 µM with HepG2.

In the case of `CC(C)c1ccc(NC(=O)C2CCN(C/C=C/c3ccccc3)CC2)cc1`, the IC50 in the data set on MGC-803 turned out to be 5.2 µM; with A549, 9.43 µM; in the data set with MCF7, 9.1 µM; in the data set with HepG2, 12.2 µM.

For the compound `COc1ccc(NC(=O)C2CCN(C/C=C/c3ccccc3)CC2)cc1`, the IC50 with MGC-803 is 58.2 µM; with A549 it was 83.8 µM; with MCF7 it was greater than 100 µM; in the data set with HepG2, 88.8 µM.

Turning to `O=C(Nc1cccc(Cl)c1)C1CCN(C/C=C/c2ccccc2)CC1`, the IC50 in the data set on MGC-803 is 11.3 µM; with A549, 19.1 µM; with MCF7, 16.1 µM; with HepG2, 20 µM.

Regarding `CN1CCN(c2ccc(NC(=O)C3CCN(C/C=C/c4ccccc4)CC3)cc2)CC1`, the half-inhibitory concentration (IC50) was found to be 14 µM in the data set with MGC-803, 19.9 µM with A549, 44 µM in the data set with MCF7 and 35.2 µM in the data set on HepG2.

As for `O=C(Nc1cccc2cccnc12)C1CCN(C/C=C/c2ccccc2)CC1`, the IC50 was found to be 38.1 µM in the data set with MGC-803, 51.6 µM in the data set with A549, 34.8 µM in the data set on MCF7 and 29.5 µM in the data set on HepG2.

(Values after ChEMBL document CHEMBL5038615, “Discovery of a cinnamyl piperidine derivative as new neddylation inhibitor for gastric cancer treatment” (Eur J Med Chem, 2021).)
